Measurements reported in patent US20260356856A1, “KRAS G12S AND G12C INHIBITORS” (MIRATI THERAPEUTICS, INC., priority 2023, published 2026).

Key:
KRas G12C = target: T1, KRas G12C (Homo sapiens, UniProt P01116, G12C); assay: KRas binding assay, TR-FRET displacement of Cy5 labelled tracer; settings: 60-minute incubation at room temperature, 1% DMSO, pH 7.5
T1 construct: Biotinylated KRas (corresponding to amino acids 1-169, produced at Accelegan Inc.); biotin (biotinylated); purchased Accelegan Inc
In short: (§1)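 Biotinylated KRas (aa 1-169) incubated with Cy5-labelled tracer, terbium streptavidin and compound (1% DMSO final) in 50 mM HEPES pH 7.5, 5 mM MgCl2, 0.005% Tween-20, 1 mM DTT. Tracer displacement read by TR-FRET after 60 min at room temperature; POC values fitted to 4-parameter IC50 equation.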

KRas G12S = target: T2, KRas G12S (Homo sapiens, UniProt P01116, G12S); assay: as above; settings: 60-minute incubation at room temperature, 1% DMSO, pH 7.5
T2 construct: Biotinylated KRas (corresponding to amino acids 1-169, produced at Accelegan Inc.); biotin (biotinylated); purchased Accelegan Inc
In short: as §1

KRas WT = target: T3, KRas WT (Homo sapiens, UniProt P01116); assay: as above; settings: 60-minute incubation at room temperature, 1% DMSO, pH 7.5
T3 construct: Biotinylated KRas (corresponding to amino acids 1-169, produced at Accelegan Inc.); biotin (biotinylated); purchased Accelegan Inc
In short: as §1

[1] = target: T4, KRas-mediated phosphorylation of ERK in MKN1 cells (Homo sapiens, UniProt P01116); assay: Inhibition of KRas-mediated phosphorylation of ERK (HTRF), MKN1 cells; type: cell-based; settings: MKN1 cells (KRas WT); HTRF pERK; 3 h incubation
T4 construct: pERK HTRF read-out
Protocol: Inhibition of KRas Phosphorylation of ERK (HTRF) by Exemplary Compounds of Formula (Ia) or (Ib)
Cisbio HTRF Advanced pERK Assay Catalog #64AERPEH • Cells: MKN1, PSN1 • Procedure: • 1. Day 1: Seed 6,000 cells/well −25 μl/well in 384-well white solid bottom plate; RPM1_10% FBS. Incubate overnight at 37 °C/5% CO2. • 2.

[2] = target: T5, KRas-mediated phosphorylation of ERK in A549 cells (Homo sapiens, UniProt P01116, G12S); assay: Inhibition of KRas-mediated phosphorylation of ERK (HTRF), A549 cells; type: cell-based; settings: HTRF pERK, 3 h incubation
T5 construct: pERK HTRF read-out
T5 sequence (P01116 1-188 isoform P01116-2 G12S): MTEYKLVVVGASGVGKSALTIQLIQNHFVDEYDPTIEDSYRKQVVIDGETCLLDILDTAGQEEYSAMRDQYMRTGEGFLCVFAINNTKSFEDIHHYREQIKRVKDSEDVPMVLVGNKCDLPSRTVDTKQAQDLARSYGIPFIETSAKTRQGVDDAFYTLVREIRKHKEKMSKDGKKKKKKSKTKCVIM

T2 sequence (P01116 1-169 isoform P01116-2 G12S): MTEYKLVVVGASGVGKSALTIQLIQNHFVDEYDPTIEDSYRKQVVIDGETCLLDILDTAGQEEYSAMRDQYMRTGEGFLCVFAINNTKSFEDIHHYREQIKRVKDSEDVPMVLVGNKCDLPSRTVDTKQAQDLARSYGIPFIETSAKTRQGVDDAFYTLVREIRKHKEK
T3 sequence (P01116 1-169 isoform P01116-2): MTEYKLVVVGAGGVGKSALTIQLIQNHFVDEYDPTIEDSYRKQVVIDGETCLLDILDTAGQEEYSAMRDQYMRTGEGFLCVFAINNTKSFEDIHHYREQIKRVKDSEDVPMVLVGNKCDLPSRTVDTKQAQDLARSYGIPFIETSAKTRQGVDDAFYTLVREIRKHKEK
T1 sequence (P01116 1-169 isoform P01116-2 G12C): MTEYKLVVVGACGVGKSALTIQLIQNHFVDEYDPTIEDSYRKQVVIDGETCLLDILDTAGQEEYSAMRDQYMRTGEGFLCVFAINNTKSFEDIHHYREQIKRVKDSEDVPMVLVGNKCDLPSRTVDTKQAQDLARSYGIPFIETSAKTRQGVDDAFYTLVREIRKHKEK
T4 sequence (P01116 1-188 isoform P01116-2): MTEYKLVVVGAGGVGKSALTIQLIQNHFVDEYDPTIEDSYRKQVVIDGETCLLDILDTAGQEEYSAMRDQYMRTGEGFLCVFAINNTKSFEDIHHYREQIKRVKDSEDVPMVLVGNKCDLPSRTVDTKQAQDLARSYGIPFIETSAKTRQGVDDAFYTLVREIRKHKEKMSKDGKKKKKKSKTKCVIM

Structure (SMILES) | IC50 (KRas G12C) [nM] | IC50 (KRas G12S) [nM] | IC50 (KRas WT) [nM] | IC50 [1] [nM] | IC50 [2] [nM]
CCc1c(F)ccc2cc(O)cc(-c3ncc4c(N5CCC(COC)(C(=O)n6ccc(C)n6)CC5)nc(OC[C@@]56CCCN5C[C@H](F)C6)nc4c3F)c12 [Example 89, (1-(7-(8-ethyl-7-fluoro-3-hydroxynaphthalen-1-yl)-8-fluoro-2-(((2R,7aS)-2-fluorotetrahydro-1H-pyrrolizin-7a(5H)-yl)methoxy)pyrido[4,3-d]pyrimidin-4-yl)-4-(methoxymethyl)piperidin-4-yl)(3-methyl-1H-pyrazol-1-yl)methanone] | 2470 | 6630 | 8490 | > 10000 | > 10000
Cc1ccn(C(=O)C2CCCCN(c3nc(OC[C@@]45CCCN4C[C@H](F)C5)nc4c(F)c(-c5ccc(F)c6sc(N)c(C#N)c56)c(Cl)cc34)CC2)n1 (stereo partly drawn) [Example 137, 2-amino-4-(6-chloro-8-fluoro-2-(((2R,7aS)-2-fluorotetrahydro-1H-pyrrolizin-7a(5H)-yl)methoxy)-4-(4-(3-methyl-1H-pyrazole-1-carbonyl)azocan-1-yl)quinazolin-7-yl)-7-fluorobenzo[b]thiophene-3-carbonitrile] | 13 | 10 | 44 | 142 | 29
CON(C)C(=O)CCCN(C)c1nc(OC[C@@]23CCCN2C[C@H](F)C3)nc2c(F)c(-c3ccc(F)c4sc(N)c(C#N)c34)c(Cl)cc12 [Example 233, 4-((7-(2-amino-3-cyano-7-fluorobenzo[b]thiophen-4-yl)-6-chloro-8-fluoro-2-(((2R,7aS)-2-fluorotetrahydro-1H-pyrrolizin-7a(5H)-yl)methoxy)quinazolin-4-yl)(methyl)amino)-N-methoxy-N-methylbutanamide] | 6 | 8 | 11 | 83 | 278
CCc1c(F)ccc2cc(O)cc(-c3ncc4c(N5C[C@H](C(=O)n6ccc(C)n6)[C@@H](C)C5)nc(OC[C@@]56CCCN5C[C@H](F)C6)nc4c3F)c12 [Example 96, ((3R,4R)-1-(7-(8-ethyl-7-fluoro-3-hydroxynaphthalen-1-yl)-8-fluoro-2-(((2R,7aS)-2-fluorotetrahydro-1H-pyrrolizin-7a(5H)-yl)methoxy)pyrido[4,3-d]pyrimidin-4-yl)-4-methylpyrrolidin-3-yl)(3-methyl-1H-pyrazol-1-yl)methanone] | 375 | 339 | 162 | > 10000 | > 10000
Cc1ccn(C(=O)C23CCC(CN(c4nc(OC[C@@]56CCCN5C[C@H](F)C6)nc5c(F)c(-c6ccc(F)c7sc(N)c(C#N)c67)c(Cl)cc45)C2)C3)n1 (stereo partly drawn) [Example 183, 2-amino-4-(6-chloro-8-fluoro-2-(((2R,7aS)-2-fluorotetrahydro-1H-pyrrolizin-7a(5H)-yl)methoxy)-4-(1-(3-methyl-1H-pyrazole-1-carbonyl)-3-azabicyclo[3.2.1]octan-3-yl)quinazolin-7-yl)-7-fluorobenzo[b]thiophene-3-carbonitrile] | 4 | 3 | 5 | 192 | 143
CCc1c(F)ccc2cc(O)cc(-c3ncc4c(N5CCC(C(=O)n6ccc(C)n6)C6CC65)nc(OC[C@@]56CCCN5C[C@H](F)C6)nc4c3F)c12 (stereo partly drawn) [Example 97, (2-(7-(8-ethyl-7-fluoro-3-hydroxynaphthalen-1-yl)-8-fluoro-2-(((2R,7aS)-2-fluorotetrahydro-1H-pyrrolizin-7a(5H)-yl)methoxy)pyrido[4,3-d]pyrimidin-4-yl)-2-azabicyclo[4.1.0]heptan-5-yl)(3-methyl-1H-pyrazol-1-yl)methanone] | 395 | 201 | 125 | 2850 | 2120
CCc1c(F)ccc2cc(O)cc(-c3ncc4c(N5CC6CCC(C(=O)n7ccc(C)n7)(C6)C5)nc(OC[C@@]56CCCN5C[C@H](F)C6)nc4c3F)c12 (stereo partly drawn) [Example 106, (3-(7-(8-ethyl-7-fluoro-3-hydroxynaphthalen-1-yl)-8-fluoro-2-(((2R,7aS)-2-fluorotetrahydro-1H-pyrrolizin-7a(5H)-yl)methoxy)pyrido[4,3-d]pyrimidin-4-yl)-3-azabicyclo[3.2.1]octan-1-yl)(3-methyl-1H-pyrazol-1-yl)methanone] | 22 | 14 | 40 | 529 | 584
Cc1ccn(C(=O)[C@H]2C[C@H]2CNc2nc(OC[C@@]34CCCN3C[C@H](F)C4)nc3c(F)c(-c4ccc(F)c5sc(N)c(C#N)c45)c(Cl)cc23)n1 [Example 182, 2-amino-4-(6-chloro-8-fluoro-2-(((2R,7aS)-2-fluorotetrahydro-1H-pyrrolizin-7a(5H)-yl)methoxy)-4-((((cis)-2-(3-methyl-1H-pyrazole-1-carbonyl)cyclopropyl)methyl)amino)quinazolin-7-yl)-7-fluorobenzo[b]thiophene-3-carbonitrile] | 24 | 38 | 35 | 247 | 179
CCc1c(F)ccc2cc(O)cc(-c3ncc4c(N5CC6CC5CC6C(=O)n5ccc(C)n5)nc(OC[C@@]56CCCN5C[C@H](F)C6)nc4c3F)c12 (stereo partly drawn) [Example 90, (2-(7-(8-ethyl-7-fluoro-3-hydroxynaphthalen-1-yl)-8-fluoro-2-(((2R,7aS)-2-fluorotetrahydro-1H-pyrrolizin-7a(5H)-yl)methoxy)pyrido[4,3-d]pyrimidin-4-yl)-2-azabicyclo[2.2.1]heptan-5-yl)(3-methyl-1H-pyrazol-1-yl)methanone] | 260 | 286 | 233 | 9190 | > 10000
CCc1c(F)ccc2cc(O)cc(-c3ncc4c(N5C[C@@H]6[C@H](C5)[C@@H]6C(=O)n5ccc(C)n5)nc(OC[C@@]56CCCN5C[C@H](F)C6)nc4c3F)c12 [Example 114, ((1R,5S,6R)-3-(7-(8-ethyl-7-fluoro-3-hydroxynaphthalen-1-yl)-8-fluoro-2-(((2R,7aS)-2-fluorotetrahydro-1H-pyrrolizin-7a(5H)-yl)methoxy)pyrido[4,3-d]pyrimidin-4-yl)-3-azabicyclo[3.1.0]hexan-6-yl)(3-methyl-1H-pyrazol-1-yl)methanone] | 776 | 664 | 1180 | 7830 | > 10000
CCc1c(F)ccc2cc(O)cc(N3CCc4c(nc(OC[C@@]56CCCN5C[C@H](F)C6)nc4N4CCCCC(C(=O)n5ccc(C)n5)CC4)C3)c12 (stereo partly drawn) [Example 148, (1-(7-(8-ethyl-7-fluoro-3-hydroxynaphthalen-1-yl)-2-(((2R,7aS)-2-fluorotetrahydro-1H-pyrrolizin-7a(5H)-yl)methoxy)-5,6,7,8-tetrahydropyrido[3,4-d]pyrimidin-4-yl)azocan-4-yl)(3-methyl-1H-pyrazol-1-yl)methanone] | 19 | 10 | 147 | 108 | 140
CCc1c(F)ccc2cc(O)cc(-c3ncc4c(NCCC(=O)n5ccc(C)n5)nc(OC[C@@]56CCCN5C[C@H](F)C6)nc4c3F)c12 [Example 122, 3-((7-(8-ethyl-7-fluoro-3-hydroxynaphthalen-1-yl)-8-fluoro-2-(((2R,7aS)-2-fluorotetrahydro-1H-pyrrolizin-7a(5H)-yl)methoxy)pyrido[4,3-d]pyrimidin-4-yl)amino)-1-(3-methyl-1H-pyrazol-1-yl) propan-1-one] | 9 | 5 | 19 | 342 | 38
